What was measured:
Type in all cases: in vivo
Armyworm [1] = experiment: Test examples 3: leaf dipping method, cabbage, Armyworm
Procedure: (§1) A certain amount of compound (0.0001 g) was weighed by using an analytical balance, and prepared to a mother liquid (1) with N,N-dimethylformamide containing 1% Tween-80 emulsifier, and then the other liquid was diluted with distilled water or standby.
(§2) Leaf dipping method: an appropriate amount of cabbage was infiltrated in the prepared liquid and dried in the shade naturally, and then placed in a culture dish with filter paper; Armyworm/Diamondback moth larvae in the 2-3rd instar were inoculated, 10 heads per dish, and the dishes were cultured in an observation room at 24-27° C. The results were investigated after 3 days. […] The test concentrations were 50 mg/L, 25 mg/L, 12.5 mg/L, 6.25 mg/L, 3.13 mg/L, 1.56 mg/L.

Armyworm [2] = experiment: Test examples 1: leaf dipping method, corn leaves, Armyworm; conditions: Mythimna separata, foliar, 72 h; 200 mg/L, third instar larvae, after 3 days; read-out: mortality rate to Armyworm
Procedure: (§3) A certain amount of compound (0.0001 g) was weighed by using an analytical balance, and prepared to a mother liquid (1) with N,N-dimethylformamide containing 1% Tween-80 emulsifier, and then the mother liquid was diluted with distilled water for standby.
(§4) Leaf dipping method: the test target was Armyworm. An appropriate amount of corn leaves were infiltrated in the prepared liquid and dried in the shade naturally, and then placed in a culture dish with filter paper; armyworm larvae in the third instar were inoculated to the corn leaves, 10 heads per dish, and the dishes were cultured in an observation room at 24-27° C. The results were investigated after 3 days. […] The test concentration was 200 mg/L.

Diamondback moth [3] = experiment: Test examples 1: leaf dipping method, cabbage leaves, Diamondback moth; conditions: Plutella xylostella, foliar, 72 h; 200 mg/L, third instar, after 3 days; read-out: mortality rate to Diamondback moth
Procedure: as §3
as §4, with “targets were Diamondback moth, Tobacco Cutworm and Beet” for “target was”, “cabbage” for “corn”, “worms” for “armyworm larvae”, “the” for “the corn”, “200 mg/L or 100” for “200”

Beet Armyworm [4] = experiment: Test examples 1: leaf dipping method, cabbage leaves, Beet Armyworm; conditions: Spodoptera exigua, foliar, 72 h; 100 mg/L, third instar, after 3 days; read-out: mortality rate to Beet Armyworm
Procedure: as §3
as §4, with “targets were Diamondback moth, Tobacco Cutworm and Beet” for “target was”, “cabbage” for “corn”, “worms” for “armyworm larvae”, “the” for “the corn”, “200 mg/L or 100” for “200”

Tobacco Cutworm = experiment: Test examples 1: leaf dipping method, cabbage leaves, Tobacco Cutworm; conditions: foliar, 72 h; 100 mg/L, third instar, after 3 days; read-out: mortality rate to Tobacco Cutworm
Procedure: as §3
as §4, with “targets were Diamondback moth, Tobacco Cutworm and Beet” for “target was”, “cabbage” for “corn”, “worms” for “armyworm larvae”, “the” for “the corn”, “200 mg/L or 100” for “200”

Brown rice planthopper = experiment: Test examples 1: spraying leaves and stems, rice seedlings, Brown rice planthopper; conditions: 500 mg/L, after 72 hours; read-out: mortality rate to Brown rice planthopper
Procedure: as §3
Spraying Leaves and Stems: the test target was Brown rice planthopper. Rice seedlings inoculated with Brown rice planthopper were spayed under Potter spray tower, and then the Brown rice planthopper was placed and cultured in an observation room at 24-27° C. The results were investigated after 72 hours. The test concentration was 500 mg/L.

Aphis medicaginis = experiment: Test examples 1: leaves dish spraying, Vicia faba leaves, Aphis medicaginis; conditions: 500 mg/L, after 48 hours, read-out: mortality rate to Aphis medicaginis
Procedure: as §3
Leaves Dish Spraying: the test targets were tetranychuscinnabarinus and Aphis craccivora Koch. Vicia faba leaves inoculated with Carmine Spider Mite and Aphis medicaginis were spayed under Potter spray tower, and then the Carmine Spider Mite was placed and cultured in anobservation room at 24-27° C.; the Aphis medicaginis was placed and cultured in an observation room at 20-22° C. The results were investigated after 48 hours. […] The test concentration was 500 mg/L.

Diamondback moth [5] = experiment: Test examples 2: leaf dipping method, Diamondback moth; conditions: Plutella xylostella, foliar, 72 h, after 3 days, read-out: The mortality rate (%) of the compound to Diamondback moth; for mortality at 12.5 µg/mL: 12.5 mg/L; for mortality at 25 µg/mL: 25 mg/L; for mortality at 50 µg/mL: 50 mg/L
Procedure: (§5) A certain amount of compound (0.0001 g) was weighed by using an analytical balance, and prepared to a mother liquid (1%) with N, N-dimethylformamide containing 1% Tween-80 emulsifier, and then the mother liquid was diluted with distilled water for standby.
as §2, with “corn leaves/cabbage/cowpea were” for “cabbage was”, “armyworm/Diamondback moth/Beet Armyworm” for “Armyworm/Diamondback moth”, “inoculated to the corn leaves,” for “inoculated,”

Armyworm [6] = experiment: Test examples 2: leaf dipping method, Armyworm; conditions: Mythimna separata, foliar, 72 h, after 3 days, read-out: The mortality rate (%) of the compound to Armyworm; for mortality at 12.5 µg/mL: 12.5 mg/L; for mortality at 25 µg/mL: 25 mg/L; for mortality at 50 µg/mL: 50 mg/L
Procedure: as §5
as §2, with “corn leaves/cabbage/cowpea were” for “cabbage was”, “armyworm/Diamondback moth/Beet Armyworm” for “Armyworm/Diamondback moth”, “inoculated to the corn leaves,” for “inoculated,”

Beet Armyworm [7] = experiment: Test examples 2: leaf dipping method, Beet Armyworm; conditions: Spodoptera exigua, foliar, 72 h, after 3 days, read-out: The mortality rate (%) of the compound to Beet Armyworm; for mortality at 12.5 µg/mL: 12.5 mg/L; for mortality at 25 µg/mL: 25 mg/L; for mortality at 50 µg/mL: 50 mg/L
Procedure: as §5
as §2, with “corn leaves/cabbage/cowpea were” for “cabbage was”, “armyworm/Diamondback moth/Beet Armyworm” for “Armyworm/Diamondback moth”, “inoculated to the corn leaves,” for “inoculated,”

[8] = tested on: Frankliniella occidentalis; experiment: Test examples 2: spraying of cowpea leaf discs, Frankliniella occidentalis; conditions: foliar, 24 h, after 1 day, read-out: The mortality rate (%) of the compound to Frankliniella occidentalis; for mortality at 5 µg/mL: 5 mg/L; for mortality at 10 µg/mL: 10 mg/L; for mortality at 20 µg/mL: 20 mg/L
Procedure: as §5
Spraying: cowpea leaves growing uniformity were punched with a punching bear to make leaf discs, leaf discs were placed onto degreased cotton blocks in a dish, two leaf discs per dish, and water was added into the dish and it was flush with the leaf discs, and the dish was for standby. Frankliniella occidentalis in the 2-3rd instar were inoculated to the ready leaf discs, more than 15 per disc. Which were spayed under Potter spray tower at a dose of 0.5 mL per treatment. The blank control was treated first, and then the above operations were repeated in the order of the test dose from low to high, with 2 repeats per treatment. After treatment, the samples were placed in the observation room, and the results were investigated 1 day later. […] The test concentrations were 20 mg/L, 10 mg/L, 5.0 mg/L, 2.5 mg/L, 1.25 mg/L, 0.625 mg/L.

Diamondback moth [9] = experiment: Test examples 3: leaf dipping method, cabbage, Diamondback moth; conditions: for mortality at 12.5 µg/mL / mortality at 25 µg/mL / mortality at 50 µg/mL: Plutella xylostella, foliar, 72 h, after 3 days, read-out: The mortality rate (%) to Diamondback moth; for mortality at 12.5 µg/mL: 12.5 mg/L; for mortality at 25 µg/mL: 25 mg/L; for mortality at 50 µg/mL: 50 mg/L
Procedure: as §1, §2

Molecule | mortality at 12.5 µg/mL (Diamondback moth [5]) [%] | mortality at 25 µg/mL (Diamondback moth [5]) [%] | mortality at 50 µg/mL (Diamondback moth [5]) [%] | mortality at 12.5 µg/mL (Armyworm [6]) [%] | mortality at 25 µg/mL (Armyworm [6]) [%] | mortality at 50 µg/mL (Armyworm [6]) [%] | mortality at 12.5 µg/mL (Beet Armyworm [7]) [%] | mortality at 25 µg/mL (Beet Armyworm [7]) [%] | mortality at 50 µg/mL (Beet Armyworm [7]) [%] | mortality at 5 µg/mL [8] [%] | mortality at 10 µg/mL [8] [%] | mortality at 20 µg/mL [8] [%] | also measured
2-ethyl-3,5,7-trimethyl-6-(4-(trifluoromethoxy)phenoxy)quinolin-4-ol [compound (42)] | – | – | – | – | – | – | – | – | – | – | – | – | The mortality rate (%) to Armyworm (Armyworm [1]; 12.5 mg/L, after 3 days): 80%; The mortality rate (%) to Armyworm (Armyworm [1]; 25 mg/L, after 3 days): 85%; The mortality rate (%) to Armyworm (Armyworm [1]; 50 mg/L, after 3 days): 95%
CCc1nc2cc(C)c(Oc3ccc(OC(F)(F)F)cc3)cc2c(OC(=O)OCCOC)c1C [Example 1, 2-ethyl-3,7-dimethyl-6-(4-(trifluoromethoxy)phenoxy)quinolin-4-yl (2-methoxyethyl)carbonate] | 100 | 100 | 100 | 100 | 100 | 100 | 90 | 100 | 100 | 100 | 100 | 100 | mortality at 200 µg/mL (Armyworm [2]): 100%; mortality at 200 µg/mL (Diamondback moth [3]): 100%; mortality at 100 µg/mL (Beet Armyworm [4]): 100%; mortality at 100 µg/mL (Tobacco Cutworm): 100%; mortality at 500 µg/mL (Brown rice planthopper): 100%; mortality at 500 µg/mL (Aphis medicaginis): 100%
CCc1nc2cc(C)c(Oc3ccc(OC(F)(F)F)cc3)c(C)c2c(OC(=O)OCC2CCCO2)c1C (centres unmarked) [Example 37] | 95 | 100 | 100 | 100 | 100 | 100 | 75 | 100 | 100 | 95 | 100 | 100 | –
CCc1nc2cc(C)c(Oc3ccc(OC(F)(F)F)cc3)cc2c(O)c1C [compound NO. 119, reference compound] | – | – | – | – | – | – | – | – | – | – | – | – | mortality at 12.5 µg/mL (Diamondback moth [9]): 70%; mortality at 25 µg/mL (Diamondback moth [9]): 90%; mortality at 50 µg/mL (Diamondback moth [9]): 100%; mortality at 12.5 µg/mL (Armyworm [1]; Mythimna separata, foliar, 72 h, 12.5 mg/L, after 3 days, read-out: The mortality rate (%) to Armyworm): 10%; mortality at 25 µg/mL (Armyworm [1]; Mythimna separata, foliar, 72 h, 25 mg/L, after 3 days, read-out: The mortality rate (%) to Armyworm): 50%; mortality at 50 µg/mL (Armyworm [1]; Mythimna separata, foliar, 72 h, 50 mg/L, after 3 days, read-out: The mortality rate (%) to Armyworm): 60%
CCc1nc2cc(C)c(Oc3ccc(OC(F)(F)F)cc3)c(C)c2c(O)c1C [compound (42), 2-ethyl-3,5,7-trimethyl-6-(4-(trifluoromethoxy)phenoxy)quinolin-4-ol] | – | – | – | – | – | – | – | – | – | – | – | – | mortality at 12.5 µg/mL (Diamondback moth [9]): 100%; mortality at 25 µg/mL (Diamondback moth [9]): 100%; mortality at 50 µg/mL (Diamondback moth [9]): 100%; control effect on Diamondback moth (Diamondback moth [9]; in words, different doses): significant control effect; control effect on Armyworm (Armyworm [1]; in words, different doses): significant control effect
CCc1nc2cc(C)c(Oc3ccc(OC(F)(F)F)cc3)cc2c(OC(=O)OCCOCCOC)c1C [Example 7] | 85 | 90 | 100 | 100 | 100 | 100 | 80 | 100 | 100 | 95 | 100 | 100 | –
CCc1nc2ccc(Oc3ccc(OC(F)(F)F)cc3)c(C)c2c(OC(=O)OCC2CCCO2)c1C (centres unmarked) [Example 38] | 92 | 100 | 100 | 90 | 100 | 100 | 70 | 100 | 100 | 90 | 100 | 100 | –
CCc1nc2cc(C)c(Oc3ccc(OC(F)(F)F)cc3)c(C)c2c(OC(=O)OCCOC)c1C [Example 18, 2-ethyl-3,5,7-trimethyl-6-(4-(trifluoromethoxy)phenoxy)quinolin-4-yl (2-methoxyethyl) carbonate] | 100 | 100 | 100 | 100 | 100 | 100 | 90 | 100 | 100 | 100 | 100 | 100 | –
CCc1nc2cc(C)c(Oc3ccc(OC(F)(F)F)cc3)cc2c(OC(=O)OCC2CCCO2)c1C (centres unmarked) [Example 8] | 93 | 100 | 100 | 100 | 100 | 100 | 70 | 95 | 100 | 85 | 100 | 100 | –
